Measurements as given in patent publication US6022495A, “Photochromic benzopyrano-fused naphthopyrans” (Transitions Optical, Inc., priority 1998, dated 2000).

Experiments:
[1] = Visible lambda max of the activated form in polymer test squares (Varian Cary 3 UV-Visible spectrophotometer); type: physicochemical; conditions: activated (colored) form in test square of BPA 2EO DMA / poly(ethylene glycol) 600 dimethacrylate, 1.5×10^-3 molal
Method: (§1) Testing was done with the photochromic compounds prepared in Examples 1-11 in the following manner. A quantity of each photochromic compound calculated to yield a 1.5×10^-3 molal solution was added to a flask containing 50 grams of a monomer blend of 4 parts ethoxylated bisphenol A dimethacrylate (BPA 2EO DMA), 1 part poly(ethylene glycol) 600 dimethacrylate, and 0.033 weight percent 2,2'-azobis(2-methyl propionitrile) (AIBN). Each photochromic compound was dissolved into the monomer blend by stirring and gentle heating. After a clear solution was obtained, it was poured into a flat sheet mold having the interior dimensions of 2.2 mm×6 inches (15.24 cm)×6 inches (15.24 cm). The mold was sealed and placed in a horizontal air flow, programmable oven programmed to increase the temperature from 40° C. to 95° C. over […], hold the temperature at 95° C. for 3 hours, lower it to 60° C. over a 2 hour interval and then hold at 60° C. for 16 hours. After the mold was opened, the polymer sheet was cut using a diamond blade saw into 2 inch (5.1 centimeters) test squares.
The Δ OD/min, which represents the sensitivity of the photochromic compound's response to UV light, was measured over the first five (5) seconds of UV exposure, then expressed on a per minute basis. The saturation optical density (Δ OD@ Saturation) was taken under identical conditions as the Δ OD/min, except UV exposure was continued for 15 minutes. The lambda max (Vis) is the wavelength in nanometers (nm) in the visible spectrum at which the maximum absorption of the activated (colored) form of the photochromic compound in a test square occurs. The lambda max (Vis) wavelength was determined by testing the photochromic test square polymerizates of Part A in a Varian Cary 3 UV-Visible spectrophotometer. The Bleach Rate (T 1/2) is the time interval in seconds for the absorbance of the activated form of the photochromic compound in the test squares to reach one half the highest absorbance at room temperature (72° F., 22.20C.) after removal of the source of activating light.

[2] = Photochromic response of polymer test squares on an optical bench; type: physicochemical; conditions: for ΔOD @ Saturation: UV exposure continued for 15 minutes; for ΔOD @ Saturation / Sensitivity ΔOD/min: 72° F. (22.2° C.); for Sensitivity ΔOD/min: first five (5) seconds of UV exposure, expressed per minute; for Bleach Rate T 1/2: time for absorbance of activated form to reach one half the highest absorbance at room temperature (72° F.) after removal of activating light
Method: as §1
The photochromic test squares prepared in Part A were tested for photochromic response on an optical bench. Prior to testing on the optical bench, the photochromic test squares were exposed to 365 nanometer ultraviolet light for about 15 minutes to activate the photochromic compounds and then placed in a 76° C. oven for about 15 minutes to bleach or inactivate the photochromic compounds. The test squares were then cooled to room temperature, exposed to fluorescent room lighting for at least 2 hours and then kept covered for at least 2 hours prior to testing on an optical bench maintained at 72° F. (22.2° C.). The bench was fitted with a 150 watt Xenon arc lamp, a remote controlled shutter, a copper sulfate bath acting as a heat sink for the arc lamp, a Schott WG-320 nm cut-off filter which removes short wavelength radiation; neutral density filter(s) and a sample holder in which the square to be tested was inserted. The power output of the optical bench, i.e., the dosage of light that the sample lens would be exposed to, was calibrated with a photochromic test square used as a reference standard. […] The UV-A detector was placed into the sample holder and the light output was measured. Adjustments to the power output were made by increasing or decreasing the lamp wattage or by adding or removing neutral density filters in the light path.
A monitoring, collimated beam of light from a tungsten lamp was passed through the square at a small angle (approximately […]) normal to the square. After passing through the square, the light from the tungsten lamp was directed to a detector through Spectral Energy Corp. GM-200 monochromator set at the previously determined visible lambda max of the photochromic compound being measured. The output signals from the detector were processed by a radiometer.
Change in optical density (ΔOD) was determined by inserting a test square in the bleached state into the sample holder, adjusting the transmittance scale to 100%, opening the shutter from the Xenon lamp to provide ultraviolet radiation to change the test square from the bleached state to an activated (i.e., darkened) state, measuring the transmittance in the activated state, and calculating the change in optical density according to the formula: ΔOD=log(100/% Ta), where % Ta is the percent transmittance in the activated state and the logarithm is to the base 10.
The Δ OD/min, which represents the sensitivity of the photochromic compound's response to UV light, was measured over the first five (5) seconds of UV exposure, then expressed on a per minute basis. The saturation optical density (Δ OD@ Saturation) was taken under identical conditions as the Δ OD/min, except UV exposure was continued for 15 minutes. […]

| Compound | lambda max (Vis) [1] | ΔOD @ Saturation [2] | Sensitivity ΔOD/min [2] | Bleach Rate T 1/2 [2] |
| --- | --- | --- | --- | --- |
| COc1ccc(C2(c3ccccc3)C=Cc3c(c4ccccc4c4c3oc(=O)c3cc(OC)c(OC)cc34)O2)cc1 (centres unmarked) [Compound 7A, 6-(4-methoxyphenyl)-6-phenyl-12,13-dimethoxy-10-oxo-6,10-dihydro[2]benzopyrano[3',4':3,4]naphtho(1,2-b)pyran] | 569 nanometers | 0.22 | 0.27 ΔOD/min | 54 s |
| COc1ccc(C2(c3ccccc3)C=Cc3c(c4c5cc(OC)c(OC)cc5c(=O)oc4c4ccccc34)O2)cc1 (centres unmarked) [Compound 7B, 2-(4-methoxphenyl)-2-phenyl-12,13-dimethoxy-10-oxo-2,10-dihydro[2]benzopyrano[4',3':3,4]naphtho(2,1-b)pyran] | 464 nanometers | 0.29 | 0.31 ΔOD/min | 47 s |
| COc1ccc(C2(c3ccccc3)C=Cc3c4c(c5ccccc5c3O2)-c2cc(OC)c(OC)cc2C(C)(C)O4)cc1 (centres unmarked) [Compound 8, 6-(4-methoxyphenyl)-6-phenyl-12,13-dimethoxy-10,10-dimethyl-6,10-dihydro[2]benzopyrano [3',4':3,4]naphtho(1,2-b)pyran] | 602 nanometers | 0.21 | 0.08 ΔOD/min | 216 s |
| COc1ccc(C2(c3ccc(OC)cc3)C=Cc3c(c4c5ccc(OC)cc5c(=O)oc4c4ccccc34)O2)cc1 [Compound 9A, 2,2-bis(4-methoxyphenyl)-12-methoxy-10-oxo-2,10-dihydro[2]benzopyrano[4',3':3,4]naphtho(2,1-b)pyran] | 478 nanometers | 0.12 | 0.25 ΔOD/min | 24 s |
| O=c1oc2ccccc2c2c1c1c(c3ccccc32)OC(c2ccccc2)(c2ccccc2)C=C1 [Compound 10, 6,6-diphenyl-9-oxo-6,9-dihydro[1]benzopyrano[3',4':3,4]naphtho(1,2-b)pyran] | 484 nanometers | 0.26 | 0.69 ΔOD/min | 19 s |
| O=c1oc2c3ccc4c(c3ccc2c2ccccc12)C=CC(c1ccccc1)(c1ccccc1)O4 [Compound 11, 3,3-diphenyl-8-oxo-3,8-dihydro[2]benzopyrano[3',4':5,6]naphtho(2,1-b)pyran] | 466 nanometers | 0.02 | 0.12 ΔOD/min | – |
